{"source": "ChEMBL document CHEMBL1155602", "about": "“Three new scalarane sesterterpenoids from the Okinawan sponge Hyrtios erectus” (J Nat Prod, 2000)", "test_system": "KB", "test": "Antiproliferative activity against human KB cells", "format": "functional, cell-based", "data": [{"smiles": "CC1(C)CCC[C@]2(C)[C@H]3C[C@@H](O)[C@]4(C)C=C(C=O)CC[C@H]4[C@]3(C)CC[C@@H]12", "values": [{"measurement": "IC50", "result": 2.82, "unit": "µg/mL"}]}]}
